Drawing on patent US20070129344A1, “Bicyclic 6-alkylidene-penem beta-lactamase inhibitors and beta-lactam antibiotic combination: a broad spectrum antibiotic” (priority 2005, published 2007), this text covers MIC for 1 molecule.

What all share (type): cell-based
Assay [1] has as its system E. coli LSU 80-8 GC 6265 TEM-1. As to the kind of experiment: MIC microbroth dilution; β-lactamase class A. The conditions noted are these: E. coli GC 6265; Cefepime + 4 ug/ml Compound 1. As for the experimental part:
The in vitro activities of the antibiotics were determined by the microbroth dilution method as recommended by the National Committee for Clinical Laboratory Standards (NCCLS). (NCCLS. 2000. Methods for Dilution Antimicrobial Susceptibility Tests for Bacteria That Grow Aerobically; Approved Standards: M7-A5, vol. 19. National Committee for Clinical Laboratory Standards, Villanova, Pa.). Mueller-Hinton II broth (MHBII)(BBL Cockeysville, Md.), was used for the testing procedure. […]. The plates were incubated for 18-22 hours at 35° C. in ambient air.

The test system of assay [2] is E. cloacae PT 197 Stably derepressed AmpC. The conditions noted are these: Cefepime + 4 ug/ml Compound 1. Here is the method: (§1) The in vitro activities of the antibiotics were determined by the microbroth dilution method as recommended by the National Committee for Clinical Laboratory Standards (NCCLS). (NCCLS. 2000. Methods for Dilution Antimicrobial Susceptibility Tests for Bacteria That Grow Aerobically; Approved Standards: M7-A5, vol. 19. National Committee for Clinical Laboratory Standards, Villanova, Pa.). Mueller-Hinton II broth (MHBII)(BBL Cockeysville, Md.), was used for the testing procedure. […] The plates were incubated for 18-22 hours at 35° C. in ambient air.

The test system of assay [3] is E. cloacae GC 7055 TEM-1, SHV-12 Amp C inducable. Particulars: Cefepime + 4 ug/ml Compound 1. As for the experimental part: as §1
Assay [4] has as its system E. cloacae GC 1713 AmpC-constitutive. The conditions noted are these: Cefepime + 4 ug/ml Compound 1. As for the experimental part: as §1

A word on the MIC: it is the least concentration at which growth counts as inhibited. Regarding `O=C([O-])C1=CS[C@@H]2/C(=C\c3cn4c(n3)CCC4)C(=O)N12.[Na+]` [Compound 1, (5R), (6Z)-6-(6,7-Dihydro-5H-pyrrolo[1,2-a]imidazol-2-ylmethylene)-7-oxo-4-thia-1-aza-bicyclo[3.2.0]hept-2-ene-2-carboxylic Acid, Sodium Salt], the MIC in assay [1] is 0.03 µg/mL; in assay [2] it was 0.50 µg/mL; in assay [3] it was 0.06 µg/mL; in assay [4], 0.12 µg/mL.
